Tests used:
Format in all cases: cell-based, human
[1] = system: GM16214 and GM16215 lymphoblasts; assay: Cell viability (XTT) after H2O2 treatment of lymphoblasts; settings: 500 nM etravirine 24 h
Procedure: Cells were treated with etravirine 500 nM for 24 h, then transferred (40000 cells/100 ul/well) into 96-well tissue culture plates. Cultures were supplemented for 16 h with 12.5 μM, 25 μM and 50 μM H2O2 (Sigma-Aldrich). After H2O2 treatment, 1 mg/ml XTT (2,3-Bis-(2-Methoxy-4-Nitro-5-Sulfophenyl)-2H-Tetrazolium-5-Carboxanilide) (INVITROGEN™, Thermo Fisher Scientific, Waltham, Mass. USA) and 0.25% Phenazine methosulfate (PMS, Fisher Scientific, Thermo Fisher Scientific, Waltham, Mass. USA) were added (25 μL/well) and cells were incubated for additional 2 h. Results were expressed as the percentage of reduction of absorbance at 450 nm by calibration with the absorbance of the control (untreated) cells. […]
FIGS. 6A to 6E show how etravirine functionally can rescue frataxin deficiency in FRDA patient cells. […] Cell extracts were resolved on SDS-PAGE and analysed by western blot with anti-frataxin antibody and anti-tubulin as a loading control. […] Aconitase activity was measured spectrophotometrically at 340 nm as described in the Methods section. Data represent the average of three (C) or five (D) independent experiments±S.E.M. p-values were calculated with Student's t-test (*p<0.05) E): Lymphoblasts derived from FRDA patient (GM16214) or from the unaffected carrier parent (GM16215), were either treated with 500 nM etravirine for 24 hrs or with vehicle only. […]

frataxin-deficient cells = assay: Toxic effect and cell viability of etravirine-treated frataxin-deficient cells; settings: any of the tested doses
aconitase = assay: Aconitase activity in FRDA lymphoblast extracts (spectrophotometric, 340 nm); settings: GM16214 lymphoblasts, 500 nM etravirine, after 48 hours, compared with GM16215
Procedure: Whole-cell extracts from GM16215 lymphoblasts, GM16214 lymphoblasts and GM16214 lymphoblasts treated with etravirine were prepared in ice-cold CelLytic M buffer (Sigma-Aldrich) supplemented with 2 mM sodium citrate and Complete EDTA-free protease inhibitor cocktail (Roche Diagnostic). Spectrophotometric aconitase assays were performed at 25° C. with 100 μg of cell extracts using the BIOXYTECH Aconitase-340™ Assay (OxisResearch™ 21041). Spectrophotometric citrate synthase activities were assessed at 25° C. with 10-20 μg of cell extracts using the Citrate Synthase Assay Kit (Sigma-Aldrich CS0720). […] For the calculation of the activities, one unit of enzyme was expressed as the amount of protein that converted 1 μmol of substrate per minute at 25° C. Quantitative data are presented as mean±SEM of at least three independent experiments.
To further explore the therapeutic potential of etravirine, we considered its ability to correct some of the defects associated with frataxin loss in cells derived from patients. […] To evaluate whether the increase in frataxin levels promoted by etravirine treatment is sufficient to restore ISC biogenesis in FRDA patient-derived cells, we measured the activity of aconitase upon etravirine treatment and compared it to the activity observed in cells derived from the healthy carrier parent. […]

## Cc1cc(C#N)cc(C)c1Oc1nc(Nc2ccc(C#N)cc2)nc(N)c1Br [etravirine]
[1]; GM16214 patient lymphoblasts, then 12.5, 25, 50 μM H2O2 for 16 h
  protection from H2O2-induced cell death: significantly protects
[1]; GM16215 lymphoblasts, then H2O2 for 16 h
  cell viability after H2O2 in healthy control cells upon etravirine treatment: no further improvement
frataxin-deficient cells
  toxic effect on frataxin-deficient cells: does not show any toxic effect
frataxin-deficient cells; frataxin-deficient cells
  cell viability: does not affect cell viability
aconitase
  aconitase activity in FRDA cells: restore aconitase activity
